Assay results taken from article PMC10349806 (Nature Communications, 2023).
Several values for one entry are separate records, joined by “and”; a condition that tells them apart may be missing. Identical values can stand only once. Like-named read-outs stand apart in the source and are kept apart here.

Assays:
PfCRT variant E207A = assay: Drug uptake assay, oocytes expressing E207A; assay type: cell-based, Plasmodium falciparum; settings: for Km: read-out: KM ± SEM
Method: (§1) Site-directed mutagenesis of PfCRT^Dd2 was performed as described using the megaprimer method with overlap extension[21],[54]. The primer pairs used are listed in Supplementary Table 6. Please note that a codon-optimized and oocyte-adapted version of PfCRT^Dd2 was used[22] (Supplementary Fig. 16). The resulting DNA fragment was cloned into the SP64T expression vector and verified by sequencing.
(§2) Oocytes were obtained as described previously. Briefly, adult (>2 years old) female X. laevis frogs (NASCO) were anesthetized in a cooled solution of ethyl 3-amino benzoate methanesulfonate (0.1%, w/v), followed by a surgical removal of parts of the ovary. The ovary lobes were carefully dissected and small pieces of oocytes were incubated in Ca^2+-free ND96 buffer (96 mM NaCl, 2 mM KCl, 1 mM MgCl2 buffered with 5 mM HEPES/NaOH, pH 7.5) supplemented with collagenase D (0.1%, w/v; Roche), BSA (0.5%, w/v), and 9 mm Na2HPO4 at 18 °C for 14-16 h while gentle shaking. After incubation, the oocytes were carefully washed several times with ND96 buffer (96 mM NaCl, 2 mM KCl, 1.8 mM CaCl2, 1 mM MgCl2 buffered with 5 mM HEPES/NaOH, pH 7.5) supplemented with 100 mg l^−1 gentamycin). Defolliculated and healthy-looking stage V-VI oocytes were manually selected for RNA microinjection. The RNA was generated as following: The codon-optimized sequences of PfCRT variants were cloned into the pSP64T expression vector. After vector linearization using the restriction endonucleases BamHI or SalI (New England Biolabs), transcription was performed using the in vitro SP6 mMessage mMachine Kit (Ambion)[34]. The obtained RNA was kept at −80 °C and diluted with nuclease-free water to a concentration of 0.6 μg μl^−1. Precision-bore glass capillary tubes (3.5-inch glass capillaries; Drummond Scientific Co.) were pulled on a vertical puller (P-87 Flaming/Brown micropipette puller, Sutter Instrument Co.), graduated, and placed on a microinjector (Nanoject II Auto-Nanoliter Injector, Drummond Scientific Co.). 50 nl of nuclease-free water alone (control oocytes) or 50 nl of 0.6 μg μl^−1 RNA were injected under stereomicroscopic control. Injected oocytes were incubated for 46–72 h at 18 °C with twice-daily buffer changes before usage in experiments.
Drug uptake assays were performed as described previously[21],[22],[24],[34]. […] The direction of radio-labeled drug transport is here from the mostly acidic extracellular solution (pH 4.5 or 6.0, as indicated) into the oocyte cytosol (pH ∼ 7.2), which corresponds to the efflux of drug from the acidic digestive vacuole (pH 5.2) into the parasite cytoplasm (pH 7.2). The topology of PfCRT in the oolemma is such that both the N- and C-terminus face the extracellular milieu[3],[22]. In the parasite, the N- and C-terminus face the lumen of the digestive vacuole. […] For determination of the amount of drug uptake for each oocyte, the reaction medium was removed and the oocytes were washed three times with 2 ml of ice-cold ND96 buffer. Each oocyte was individually transferred to a scintillation vial containing 5% sodium dodecyl sulfate (200 μl) for lysis. […] Oocytes that were injected with water instead of RNA were analyzed in parallel, representing the uptake of a drug by diffusion and/or endogenous permeation pathways. The resulting value represents the “background“ level of drug accumulation in oocytes (in-depth discussion in[22]). The specific PfCRT-mediated uptake was determined by subtracting the corresponding background value measured in water-injected oocytes from that of PfCRT-expressing oocytes. In all cases, at least three separate experiments were performed on oocytes from different frogs (biological replicate), and for each condition in an experiment, measurements were made from 10 oocytes per treatment. For pH 5.5, 6.0, and 6.5, ND96 was buffered with 5 mM MES/Tris base.

PfCRT variant E207Q = assay: CQ uptake assay, oocytes expressing E207Q; assay type: cell-based, Plasmodium falciparum
Method: as §1, §2
Drug uptake assays were performed as described previously[21],[22],[24],[34]. […] The direction of radio-labeled drug transport is here from the mostly acidic extracellular solution (pH 4.5 or 6.0, as indicated) into the oocyte cytosol (pH ∼ 7.2), which corresponds to the efflux of drug from the acidic digestive vacuole (pH 5.2) into the parasite cytoplasm (pH 7.2). The topology of PfCRT in the oolemma is such that both the N- and C-terminus face the extracellular milieu[3],[22]. In the parasite, the N- and C-terminus face the lumen of the digestive vacuole. […] For determination of the amount of drug uptake for each oocyte, the reaction medium was removed and the oocytes were washed three times with 2 ml of ice-cold ND96 buffer. Each oocyte was individually transferred to a scintillation vial containing 5% sodium dodecyl sulfate (200 μl) for lysis. […] Oocytes that were injected with water instead of RNA were analyzed in parallel, representing the uptake of a drug by diffusion and/or endogenous permeation pathways. […] The specific PfCRT-mediated uptake was determined by subtracting the corresponding background value measured in water-injected oocytes from that of PfCRT-expressing oocytes. […]

[1] = 50 µM CQ, 1 h, independent samples
[2] = pH 4.5, individual replicates, Fig 6b
[3] = pH 6.0, individual replicates, Fig 6b
[4] = ratio of activity pH 4.5 / pH 6.0

SMILES: CCN(CC)CCCC(C)Nc1ccnc2cc(Cl)ccc12 (centres unmarked) [CQ, chloroquine]
- E207A transport activity (PfCRT variant E207A; 10 µM CQ, pH 4.5, 60 min): 0.59 pmol oocyte-1 h-1 and 0.34 pmol oocyte-1 h-1 and 0.50 pmol oocyte-1 h-1
- E207A transport activity (PfCRT variant E207A; 10 µM CQ, pH 6.0, 60 min): 0.34 pmol oocyte-1 h-1 and 0.28 pmol oocyte-1 h-1 and 0.55 pmol oocyte-1 h-1 and 0.40 pmol oocyte-1 h-1
- E207A transport activity pH 5.0 (PfCRT variant E207A; [1]): 1.89 pmol oocyte-1 h-1 and 1.63 pmol oocyte-1 h-1
- E207A transport activity pH 5.5 (PfCRT variant E207A; [1]): 2.56 pmol oocyte-1 h-1 and 1.58 pmol oocyte-1 h-1 and 2.27 pmol oocyte-1 h-1
- E207A transport activity (PfCRT variant E207A; 100 µM CQ, pH 4.5, 60 min): 4.66 pmol oocyte-1 h-1 and 5.17 pmol oocyte-1 h-1 and 4.25 pmol oocyte-1 h-1 and 5.82 pmol oocyte-1 h-1
- E207A transport activity (PfCRT variant E207A; 100 µM CQ, pH 6.0, 60 min): 3.91 pmol oocyte-1 h-1 and 5.58 pmol oocyte-1 h-1 and 5.27 pmol oocyte-1 h-1 and 3.70 pmol oocyte-1 h-1 and 4.07 pmol oocyte-1 h-1 and 4.29 pmol oocyte-1 h-1
- E207A transport activity (PfCRT variant E207A; 200 µM CQ, pH 4.5, 60 min): 7.55 pmol oocyte-1 h-1 and 5.35 pmol oocyte-1 h-1 and 6.95 pmol oocyte-1 h-1 and 5.93 pmol oocyte-1 h-1
- E207A transport activity (PfCRT variant E207A; 200 µM CQ, pH 6.0, 60 min): 5.60 pmol oocyte-1 h-1 and 6.08 pmol oocyte-1 h-1 and 5.00 pmol oocyte-1 h-1 and 8.09 pmol oocyte-1 h-1 and 6.01 pmol oocyte-1 h-1
- E207A transport activity (PfCRT variant E207A; 300 µM CQ, pH 4.5, 60 min): 7.51 pmol oocyte-1 h-1 and 7.97 pmol oocyte-1 h-1 and 7.66 pmol oocyte-1 h-1
- E207A transport activity (PfCRT variant E207A; 300 µM CQ, pH 6.0, 60 min): 7.48 pmol oocyte-1 h-1 and 7.35 pmol oocyte-1 h-1 and 8.15 pmol oocyte-1 h-1 and 7.49 pmol oocyte-1 h-1 and 7.22 pmol oocyte-1 h-1
- E207A transport activity (PfCRT variant E207A; 400 µM CQ, pH 4.5, 60 min): 9.19 pmol oocyte-1 h-1 and 7.30 pmol oocyte-1 h-1 and 9.06 pmol oocyte-1 h-1
- E207A transport activity (PfCRT variant E207A; 400 µM CQ, pH 6.0, 60 min): 7.35 pmol oocyte-1 h-1 and 7.71 pmol oocyte-1 h-1 and 9.99 pmol oocyte-1 h-1 and 6.32 pmol oocyte-1 h-1 and 7.81 pmol oocyte-1 h-1
- E207A transport activity (PfCRT variant E207A; 500 µM CQ, pH 4.5, 60 min): 6.87 pmol oocyte-1 h-1 and 8.11 pmol oocyte-1 h-1 and 8.95 pmol oocyte-1 h-1 and 9.82 pmol oocyte-1 h-1
- E207A transport activity (PfCRT variant E207A; 500 µM CQ, pH 6.0, 60 min): 7.79 pmol oocyte-1 h-1 and 6.89 pmol oocyte-1 h-1 and 7.81 pmol oocyte-1 h-1 and 10.28 pmol oocyte-1 h-1 and 8.00 pmol oocyte-1 h-1
- transport activity at pH 6.0 compared with PfCRT^Dd2 (PfCRT variant E207A; E207A, 50 µM CQ): 44%
- Vmax ± SEM (PfCRT variant E207A; E207A, pH 4.5): 11 ± 1 pmol h^−1 oocyte ^−1
- Km (PfCRT variant E207A; E207A, pH 4.5): 180 ± 30 µM
- Vmax ± SEM (PfCRT variant E207A; E207A, pH 6.0): 11 ± 1 pmol h^−1 oocyte ^−1
- Km (PfCRT variant E207A; E207A, pH 6.0): 150 ± 30 µM
- Activity at pH 6.0 (PfCRT variant E207A; E207A, 50 µM CQ, 1 h, mean ± SEM): 2.24 ± 0.15 pmol h-1 oocyte-1
- R-value (PfCRT variant E207A; E207A, CQ transport at pH 4.5 / pH 6.0): 0.9 and 0.89 ± 0.03
- E207A transport activity pH 4.5 (PfCRT variant E207A; pH 4.5, individual replicates (Fig 6a)): 1.64 pmol oocyte-1 h-1 and 1.58 pmol oocyte-1 h-1 and 3.29 pmol oocyte-1 h-1 and 2.17 pmol oocyte-1 h-1 and 2.03 pmol oocyte-1 h-1 and 1.48 pmol oocyte-1 h-1 and 2.30 pmol oocyte-1 h-1 and 1.60 pmol oocyte-1 h-1
- E207A transport activity pH 4.5 (PfCRT variant E207A; [2]): 1.64 pmol oocyte-1 h-1 and 1.58 pmol oocyte-1 h-1 and 3.29 pmol oocyte-1 h-1 and 2.17 pmol oocyte-1 h-1 and 2.03 pmol oocyte-1 h-1 and 1.48 pmol oocyte-1 h-1 and 2.30 pmol oocyte-1 h-1 and 1.60 pmol oocyte-1 h-1
- E207A transport activity pH 4.5 (PfCRT variant E207A; pH 4.5, single replicates, Fig 1d left): 1.64 pmol oocyte-1 h-1 and 1.58 pmol oocyte-1 h-1 and 3.29 pmol oocyte-1 h-1 and 2.17 pmol oocyte-1 h-1 and 2.03 pmol oocyte-1 h-1 and 1.48 pmol oocyte-1 h-1 and 2.30 pmol oocyte-1 h-1 and 1.60 pmol oocyte-1 h-1
- E207A R-value (PfCRT variant E207A; pH 4.5 vs pH 6.0, Fig 1d left): 0.81 and 1.04 and 1.03 and 0.85 and 0.93 and 0.99 and 0.74
- E207A transport activity pH 6.0 (PfCRT variant E207A; pH 6.0, individual replicates (Fig 6a)): 2.02 pmol oocyte-1 h-1 and 1.94 pmol oocyte-1 h-1 and 3.16 pmol oocyte-1 h-1 and 2.11 pmol oocyte-1 h-1 and 2.38 pmol oocyte-1 h-1 and 1.75 pmol oocyte-1 h-1 and 2.47 pmol oocyte-1 h-1 and 1.62 pmol oocyte-1 h-1 and 2.39 pmol oocyte-1 h-1
- E207A transport activity pH 6.0 (PfCRT variant E207A; [3]): 2.02 pmol oocyte-1 h-1 and 1.94 pmol oocyte-1 h-1 and 3.16 pmol oocyte-1 h-1 and 2.11 pmol oocyte-1 h-1 and 2.38 pmol oocyte-1 h-1 and 1.75 pmol oocyte-1 h-1 and 2.47 pmol oocyte-1 h-1 and 1.62 pmol oocyte-1 h-1 and 2.39 pmol oocyte-1 h-1
- E207A transport activity pH 6.0 (PfCRT variant E207A; pH 6.0, single replicates, Fig 1d left): 2.02 pmol oocyte-1 h-1 and 1.94 pmol oocyte-1 h-1 and 3.16 pmol oocyte-1 h-1 and 2.11 pmol oocyte-1 h-1 and 2.38 pmol oocyte-1 h-1 and 1.75 pmol oocyte-1 h-1 and 2.47 pmol oocyte-1 h-1 and 1.62 pmol oocyte-1 h-1 and 2.39 pmol oocyte-1 h-1
- E207A R-value (PfCRT variant E207A; [4]): 0.81 and 1.04 and 1.03 and 0.85 and 0.93 and 0.99 and 0.74
- E207A R-value (PfCRT variant E207A; transport activity pH 4.5 relative to pH 6.0 (Fig 6a)): 0.81 and 1.04 and 1.03 and 0.85 and 0.93 and 0.99 and 0.74
- Activity at pH 4.5 (PfCRT variant E207Q; E207Q, 50 µM CQ, 1 h, mean ± SEM): 2.15 ± 0.52 pmol h-1 oocyte-1
- R-value (PfCRT variant E207Q; E207Q, CQ transport at pH 4.5 / pH 6.0): 0.88 ± 0.01
- E207Q transport activity pH 4.5 (PfCRT variant E207Q; [2]): 1.41 pmol oocyte-1 h-1 and 3.42 pmol oocyte-1 h-1 and 1.62 pmol oocyte-1 h-1
- E207Q transport activity pH 6.0 (PfCRT variant E207Q; [3]): 1.59 pmol oocyte-1 h-1 and 3.69 pmol oocyte-1 h-1 and 1.95 pmol oocyte-1 h-1
- E207Q R-value (PfCRT variant E207Q; [4]): 0.89 and 0.93 and 0.83
